According to US8557854B2, “Use of a sulfonamide compound for improving the pharmacokinetics of a drug” (Janssen R&D Ireland, priority 2005, dated 2013):
Where two headings read alike, the source gives them in different places. Blank lines part the entries; values can stand above or below the compound they belong to.

Legend:
[1] = system: large panel of viruses resistant to currently known PIs; conditions: disclosed in WO 02/092595; cited from earlier work
[2] = molecular target: T1, CYP450 3A4 (Homo sapiens, UniProt P08684); test: In vitro inhibition of CYP3A4: testosterone 6β-hydroxylation in human liver microsomes; type: biochemical
T1 construct: mediated by CYP450 3A4 in human liver microsomes; from tissue; host or cells: human liver microsomes
T1 sequence (P08684 whole entry): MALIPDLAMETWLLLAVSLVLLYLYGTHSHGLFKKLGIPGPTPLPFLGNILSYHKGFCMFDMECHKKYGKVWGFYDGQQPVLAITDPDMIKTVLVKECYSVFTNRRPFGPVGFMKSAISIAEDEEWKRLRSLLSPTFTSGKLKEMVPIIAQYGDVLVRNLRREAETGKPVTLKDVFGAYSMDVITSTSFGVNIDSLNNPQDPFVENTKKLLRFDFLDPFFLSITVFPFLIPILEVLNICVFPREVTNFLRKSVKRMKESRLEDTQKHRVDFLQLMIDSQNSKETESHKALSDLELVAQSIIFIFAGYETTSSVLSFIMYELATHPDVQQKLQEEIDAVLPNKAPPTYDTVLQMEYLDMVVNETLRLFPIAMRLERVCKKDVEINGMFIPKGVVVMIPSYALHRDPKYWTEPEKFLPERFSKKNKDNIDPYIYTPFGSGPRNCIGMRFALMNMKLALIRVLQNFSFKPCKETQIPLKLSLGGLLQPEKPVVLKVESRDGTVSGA

[3] = system: Caco-2 monolayers; test: Bi-directional protease inhibitor transport across Caco-2 monolayers (efflux ratio); type: in vitro ADME; conditions: Caco-2, 100 μM
Description: (§1) The transport of experimental protease inhibitors was studied in Caco-2 monolayers grown to confluency.

[4] = system: wild-type HIV-1; conditions: disclosed in WO 02/092595; cited from earlier work
[5] = type: in vivo, NZW rabbits
[6] = Bi-directional protease inhibitor transport across Caco-2 monolayers (efflux ratio); type: in vitro ADME; conditions: human, Caco-2, control (no inhibitor), 90 min
Description: as §1

[7] = Phase I trial: effect of compound A on single dose pharmacokinetics of saquinavir in healthy subjects; conditions: human, in vivo, 1000 mg
Protocol: [drawing 12] was used in a Phase I, open-label, randomized trial in healthy subjects to investigate the steady state pharmacokinetics of compound A, and its effect on the single dose pharmacokinetics of the protease inhibitor saquinavir. Three panels of 8 healthy subjects took a single dose of 1000 mg saquinavir alone, and while taking compound A. The pharmacokinetics of the two intakes of saquinavir was compared. On Day 1 in all panels, all subjects received a single dose of 1000 mg saquinavir. From Day 4 to Day 10, one group of healthy volunteers (Panel 1) received 60 mg compound A b.i.d., one group received 160 mg compound A b.i.d. (Panel 2) and one group took 400 mg compound A b.i.d. (Panel 3). On Day 9, all subjects took a single dose of 1000 mg saquinavir simultaneously with compound A. Full pharmacokinetic profiles of compound A were determined on Day 4, Day 8 and Day 9. Full pharmacokinetic profiles of saquinavir were determined on Day 1 and on Day 9.

Compound: CC(C)CN(C[C@@H](O)[C@H](Cc1ccccc1)NC(=O)OCc1cncs1)S(=O)(=O)c1ccc2nc(N)oc2c1 [Compound A, 5-thiazolylmethyl[(1S,2R)-3[[(2-amino-6-benzoxazolyl)sulfonyl]-(2-methylpropyl)amino]-2-hydroxy-1-(phenylmethyl)propyl]carbamate]
activity against a large panel of viruses resistant to currently known PIs [1]: has also activity
IC50 ([2]; testosterone 6β-hydroxylation, read-out: IC50 of CYP3A4 mediated metabolism): 25 to 100 nM
Ki ([2]; testosterone metabolism, non-competitive inhibition model, read-out: inhibition constant Ki of CYP3A4 inhibition): 65 nM
effect on transport polarity of protease inhibitors (Pgp efflux) [3]: significantly reduce the transport polarity
in vitro activity against wild-type HIV-1 [4]: has in vitro activity
effect on plasma level of darunavir in rabbits [5]: increase

Compound: CC(C)CN(C[C@@H](O)[C@H](Cc1ccccc1)NC(=O)O[C@H]1CO[C@H]2OCC[C@H]21)S(=O)(=O)c1ccc2nc(NCCN3CCCC3)sc2c1 [Compound B]
efflux ratio at 90 min, 30 μM ([6]; compound B 30 μM, read-out: efflux ratio (ER) of compound B): 171

The remaining lines, values ahead:

efflux ratio at 90 min, 30 μM ([6]; compound C 30 μM, read-out: efflux ratio (ER) of compound C): 119
Compound: CCN1CCC[C@@H]1CNc1nc2ccc(S(=O)(=O)N(CC(C)C)C[C@@H](O)[C@H](Cc3ccccc3)NC(=O)O[C@H]3CO[C@H]4OCC[C@H]43)cc2s1 [Compound C]

effect on plasma level of darunavir in rabbits [5]: increase
Compound: CC(C)CN(C[C@H](O)[C@@H](Cc1ccccc1)NC(=O)OCc1cncs1)S(=O)(=O)c1ccc2nc(N)oc2c1 [Compound E, 5-thiazolylmethyl[(1R,2S)-3[[(2-amino-6-benzoxazolyl)sulfonyl](2-methylpropyl)amino]-2-hydroxy-1-(phenylmethyl)propyl]carbamate]

tmax of saquinavir [7]: 5.0 (2.0-6.0) h
AUC(0-t) ([7]; AUClast of saquinavir): 515 ± 306 ng·h/mL
Cmax ([7]; Cmax of saquinavir): 117 ± 77.7 ng/mL
Tmax ([7]; tmax of saquinavir): 4.5 h
Compound: CC(C)(C)NC(=O)[C@@H]1C[C@@H]2CCCC[C@@H]2CN1C[C@@H](O)[C@H](Cc1ccccc1)NC(=O)[C@H](CC(N)=O)NC(=O)c1ccc2ccccc2n1 [saquinavir]
